Experimental data: patent EP0412158A1, “ONCOSTATIC DRUG” (priority 1987, dated 1988)
Values joined by “and” are separate entries in the source; they are usually repeats but may differ in a detail not shown here. Equal entries are not always repeated. Marks after values point to notes of the source that are not given here.

Legend:
methyl cholanthrene A [1] = assay: Methyl cholanthrene A tumor, evaluation by extension of period of survival (Examples 7 to 11); assay type: in vivo, female BALB/C mice; settings: No. 2; for Average number of days of survival / Number of toxically killed mice/total number of mice / T/control: ip×9; for Change in body weight: ip×9, D1~D9; for T/control: days of survival
Protocol: The aforementioned compounds, A to D, were severally dissolved in distilled water to obtain aqueous solutions containing the compounds in a fixed concentration of 10 mg/ml. To the female BALB/C mice (five weeks old) to which methyl cholanthrene A had been transplanted in a ratio of 1.0 x 10^5 cells per mouse, […] to determine the mices' periods of survival. For comparison, mice to which no antineoplastic drug was administered and mice to which aminonitroso urea was administered were similarly tested.

[2] = test system: methyl cholanthrene A tumor; assay: Antineoplastic activity against transplanted methyl cholanthrene A tumor, evaluation by size of tumor (Examples 1 to 6); assay type: in vivo, female BALB/C mice; settings: No. 3, ip×9; for Change in body weight: body weight 13 days after transplantation; for T/control: tumor weight
Protocol: By dissolving alkylammonium salt of polymolybdic acid [NH3C3H7(iso)]s [Mo7O24] • 3H2O (Compound A) and other compounds (Compounds B to D) severally in distilled water, aqueous solutions containing the compounds in a fixed concentration of 10 mg/ml were obtained. These aqueous solutions were administered to female BALB/C mice (five weeks old) to which methyl cholanthrene A tumor had been transplanted to test the compounds for antineoplastic activity. To be specific, methyl cholanthrene A was transplanted to the mice in a ratio of 1.0 x 10^5 cells per mouse and the aqueous solutions were continuously administered to the mice by intraperitoneal injection ([…]) for nine days. On elapse of 14 days following the start of the administration, the tumors in the mice were measured. For comparison, mice to which no antineoplastic .drug was administered and mice to which aminonitroso urea was administered were tested by following the procedure described above.

[3] = test system: human breast cancer (MX-1); assay: Human breast cancer MX-1, SRC method (Examples 29 and 30); assay type: in vivo, female ICR/cd-1 mice; settings: 30 mg/kg ip(×5)
methyl cholanthrene A [4] = assay: Methyl cholanthrene A tumor, evaluation by elongation of period of survival (Examples 31, 34 and 35); assay type: in vivo, female BALB/C mice
Protocol: The active compounds, M to 0, mentioned above were severally dissolved in distilled water to obtain aqueous solutions containing the compounds in a fixed concentration of 10 mg/ml. To be specific, to female BALB/C mice (five weeks old) to which methyl cholanthrene A had been transplanted in a ratio of 1.0 x 10^5 cells per mouse, […] for 9 consecutive days to determine the mice's periods of survival. For comparison, mice to which no aqueous solution was administered and mice to which aminonitrosourea was administered were similarly tested.

[5] = test system: methyl cholanthrene A tumor; assay: Methyl cholanthrene A tumor, evaluation by size of tumor (Examples 31 to 33); assay type: in vivo, female BALB/C mice; set-up: Average weight of tumor ± SE / Range of average tumor weight after elapse of 21 days ± SE: unit not given here; settings: 25 mg/kg, ip × 9
Protocol: A heteropoly acid salt, Na5[IM06O24]•34H2O (Compound M), and other compounds (Compounds N and O ) were severally dissolved in distilled water to obtain aqueous solutions containing the salts in a fixed concentration of 10 mg/ml. To female BALB/C mice (five weeks old) to which methyl cholanthrene A tumor had been transplanted, the aqueous solutions were administered to test the compounds for antineoplastic activity. To be specific, the methyl cholanthrene A was transplanted to the mice at a ratio of 1.0 x 10^5 cells per mouse and the aqueous solutions were administered ([…]) for 9 consecutive days by intraperitoneal injection. On elapse of 14 and 21 days after the stop of the administration, the sizes of tumors in the mice were measured. For comparison, mice to which no aqueous solution was administered and mice to which aminonitrosourea was administered were similarly tested.

MM-46 breast cancer [6] = assay type: in vivo, female C3H/He mice; settings: 100 mg/kg, ip × 9
Protocol: The active compounds, I to L, mentioned above were severally dissolved in distilled water to obtain aqueous solutions containing the compounds in a fixed concentration of 10 mg/ml. To female C3H/He mice (five weeks old) to which the MM-46 breast cancer had been transplanted in a ratio of 1.0 x 10^5 cells per mouse, the aqueous solutions were continuously administered at a dose of 100 mg/kg of body weight by intraperitoneal injection for nine days to determine the mice's periods of survival. For comparison, mice to which no aqueous solution was administered and mice to which aminonitrosourea was administered were similarly tested.

MM-46 breast cancer [7] = assay: MM-46 breast cancer, evaluation by size of tumor (Examples 21 to 24); assay type: in vivo, female C3H/He mice; settings: 100 mg/kg
Protocol: A polymolybdate, K6[Mo7022(02)2]8H20 (Compound I), and the aforementioned other compounds (Compounds J to L) were severally dissolved in distilled water to obtain aqueous solutions containing the compounds in a fixed concentration of 10 mg/mi. To female C3H/He mice (five weeks old) to which MM-46 breast cancer had been transplanted, the aqueous solutions were administered to test the compounds for antineoplastic activity. To be more specific, the MM-46 breast cancer was transplanted to the mice at a ratio of 5.0 x 10^5 cells per mouse and the aqueous solutions were continuously administered (at a dose of 100 mg/kg of body weight) by intraperineal injection for nine days. On elapse of 14 days after the stop of the administration, the size of tumor in the mice was measured. For comparison, mice to which the aqueous solution was not administered and mice to which aminonitroso urea was administered were similarly tested.

With `O.O.[NH4+].[NH4+].[NH4+].[NH4+].[NH4+].[NH4+].[O]=[Mo](=[O])([O-])[O][Mo](=[O])(=[O])[O][Mo](=[O])([O-])([O-])[O][Mo](=[O])(=[O])[O][Mo](=[O])([O-])([O-])[O][Mo](=[O])(=[O])[O][Mo](=[O])(=[O])[O-]` [Compound D, [NH4]6 [Mo7O24]. 2H20] the “Average number of days of survival” value (methyl cholanthrene A [1]; 100 mg/kg) was 33.3±2.7(8) days, the “Number of toxically killed mice/total number of mice” value (methyl cholanthrene A [1]; 100 mg/kg) was 0/8 and the “Change in body weight” value (methyl cholanthrene A [1]; 100 mg/kg) was “+1.20 g”. For the same compound, the T/control (methyl cholanthrene A [1]; 100 mg/kg) was 133.3, the “Average weight of tumor” value ([2]; 100 mg/kg) was 1790.5±189.3(8) mg and the “Number of tumorless mice /total number of mice” value ([2]; 100 mg/kg) was 0/8. The “Change in body weight” value ([2]; 100 mg/kg) was “+1.20 g” and the T/control ([2]; 100 mg/kg) was 0.695.

In the case of “[NH3C3H7(iso)]4 (Mo13O40] 1/3 • [Mo12O40H2]2/3 [Compound B]”, the “Average number of days of survival” value (methyl cholanthrene A [1]; 25 mg/kg) is reported as 29.3±1.9(9) days, the “Number of toxically killed mice/total number of mice” value (methyl cholanthrene A [1]; 25 mg/kg) is reported as 0/9 and the “Change in body weight” value (methyl cholanthrene A [1]; 25 mg/kg) is reported as -0.36 g. For the same compound, the T/control (methyl cholanthrene A [1]; 25 mg/kg) was 130.4, the “Average weight of tumor” value ([2]; 25 mg/kg) was 1753.1±132.4(9) mg and the “Number of tumorless mice /total number of mice” value ([2]; 25 mg/kg) was 0/9. For the same compound, the “Change in body weight” value ([2]; 25 mg/kg) was -0.36 g and the T/control ([2]; 25 mg/kg) was 0.681.

In the case of `O=c1[nH]cc(F)c(=O)[nH]1` [Compound 5-FU, 5-fluorouracil], the T/C [3] is reported as 56.48* %, the T7/To ([3]; group mean) is reported as 0.779±0.072 and the T7/To ([3]; individual mice) is reported as 0.839 and 0.576 and 0.917 and 0.786. The “Tumor 7 days after transplantation (T7)” value ([3]; individual mice) was 13.0 omu and 7.5 omu and 16.5 omu and 11.0 omu.

With Na3H6 [CrMo6O24] • 8H20 [Compound O] the “Average number of days of survival ±SE” value (methyl cholanthrene A [4]; 25 mg/kg, ip × 9) was 35.10±3.16(10)*** * days, the ILS (methyl cholanthrene A [4]; 25 mg/kg, ip × 9) was 41.0% and the “Number of mice of no tumor/total number of mice” value (methyl cholanthrene A [4]; 25 mg/kg, ip × 9, observed 60 days after transplantation) was 0/10. For the same compound, the “Change in body weight after elapse of 10 days” value (methyl cholanthrene A [4]; mouse, in vivo) was “(+)1.22”, the “Average weight of tumor ± SE” value ([5]; after elapse of 14 days) was 585.6±166.8 (10) and the T/C ([5]; tumor weight after 14 days) was 0.784. The T/C ([5]; tumor weight after 21 days) was 0.832.

With “[NH3 (iso)]6 [Mo7O23(O2)] • 5H20 [Compound L]” the “Average number of days of survival” value (MM-46 breast cancer [6]) was 32.1±3.9(8) days, the “Average weight of tumor after 14 days” value (MM-46 breast cancer [6]) was 1086 ± 132(8) mg and the “Ratio of elongation of life (5)” value (MM-46 breast cancer [6]) was 94.5. The “Average weight of tumor” value (MM-46 breast cancer [7]; ip × 9) was 1085.6±133.2** ** mg, the “Number of tumorless mice /total number of mice” value (MM-46 breast cancer [7]; ip × 9) was 0/8 and the T/control (MM-46 breast cancer [7]; ip×9, tumor weight) was 00.380.
